Reference: patent publication US20070009621A1, “Correcting systemic androgen levels using Eurycoma longifolia” (priority 2005, published 2007)

Test system: rat testicular cell homogenate
Experiment: Incubation of rat testicular homogenate with pregnenolone and extract, capillary gas chromatography of steroids
Format: biochemical
Conditions: gas capillary analysis
Protocol: To preliminary assess the activity of Eurycoma longifolia, an extract of it was prepared and incubated with rat testicular cell homogenate. After the incubation was completed, the samples were measured using capillary gas chromatography to measure the presence of various hormones. 500 g of the dried pulverized root was boiled exhaustively with 5 L of distilled water for 24 hours. The extract was concentrated to a 40% mass, allowed to cool to room temperature, filtered using a 4 micron filter, then centrifuged at 10,000 rpm for five minutes. Supernatant was collected and freeze-dried yielding yellow brown colored fine powder. Tris/sucrose buffer, PH 7.4 was used as homogenizing buffer and medium for suspending the testicular homogenate. This buffer, consisting of 0.25M sucrose, 0.05M Tris-HCL, 0.025M KCl and 0.005M MgCl2H2O was prepared fresh and kept cool at 4° C. Sprague Dawley albino male rats were sacrificed by stunning followed by cervical dislocation. Testes were removed quickly, pooled and homogenized in Tris/sucrose buffer (10% w/v) using homogenizer. Homogenate was then centrifuged at 1000×g (3000 rpm) for 20 minutes to remove the nuclei and cell debris. Post-nuclei suspension was used for incubation studies; a portion of the suspension was reserved for protein determination. 10 ml of the testes homogenate was first treated with 5 ml ethyl acetate before incubation process. […]

SMILES: CC(=O)[C@H]1CC[C@H]2[C@@H]3CC=C4C[C@@H](O)CC[C@]4(C)[C@H]3CC[C@]12C [Prenenolone, Pregnenolone]
- An α (16-androstene steroid metabolite (pheromone)): 1.62
- An β Andien β (16-androstene steroid metabolites (pheromones)): 1.99
